# From ChEMBL document CHEMBL1255311, “Evaluation of a 2-pyridone, KRQ-10018, against Mycobacterium tuberculosis in vitro and in vivo” (Antimicrob Agents Chemother, 2008)
# Assays:
# [1] = system: Mycobacterium tuberculosis; assay: Antimicrobial activity against Mycobacterium tuberculosis Erdman injected into gamma interferon gene knockout C57BL/6 mouse assessed as bacterial load in spleen of mouse at 100 mg/kg measured 9 days post drug treatment; format: functional
# [2] = system: Mycobacterium tuberculosis; assay: Antimicrobial activity against Mycobacterium tuberculosis Erdman injected into gamma interferon gene knockout C57BL/6 mouse assessed as bacterial load in spleen of mouse at 300 mg/kg measured 9 days post drug treatment; format: functional
# [3] = Oral bioavailability in mouse at 300 mg/kg, po measured after 30 mins; format: ADME, organism-based; settings: in vivo, read-out: Drug uptake
# [4] = Oral bioavailability in mouse at 300 mg/kg, po measured after 2 hrs; format: ADME, organism-based; settings: in vivo, read-out: Drug uptake
# [5] = system: Staphylococcus aureus; assay: Antimicrobial activity against Staphylococcus aureus ATCC 29213 by broth macrodilution method; format: functional
# [6] = system: Escherichia coli; assay: Antimicrobial activity against Escherichia coli ATCC 25922 by broth macrodilution method; format: functional
# [7] = system: Pseudomonas aeruginosa; assay: Antimicrobial activity against Pseudomonas aeruginosa ATCC 27853 by broth macrodilution method; format: functional
# [8] = system: Mycobacterium tuberculosis; assay: Antimicrobial activity against Mycobacterium tuberculosis Erdman injected into gamma interferon gene knockout C57BL/6 mouse assessed as bacterial load in lung of mouse at 300 mg/kg measured 9 days post drug treatment; format: functional
# [9] = system: Mycobacterium tuberculosis; assay: Antimicrobial activity against Mycobacterium tuberculosis Erdman injected into gamma interferon gene knockout C57BL/6 mouse assessed as bacterial load in lung of mouse at 100 mg/kg measured 9 days post drug treatment; format: functional
# [10] = system: Mycobacterium tuberculosis; assay: Antimicrobial activity against Mycobacterium tuberculosis H37Rv by macrodilution method; format: functional
# [11] = system: Mycobacterium tuberculosis; assay: Antimicrobial activity against Mycobacterium tuberculosis H37Rv at assessed as growth inhibition at […] following 24 days oxygen depletion by Wayne method relative to control; format: functional; parameters: scale not given: the % may be the effect or the level left
# [12] = system: Mycobacterium tuberculosis; assay: Antimicrobial activity against Mycobacterium tuberculosis H37Rv by alamar blue assay; format: functional
# [13] = system: Mycobacterium tuberculosis; assay: Antimicrobial activity against Mycobacterium tuberculosis Erdman injected into gamma interferon gene knockout C57BL/6 mouse assessed as bacterial load in spleen of mouse at 25 mg/kg measured 9 days post drug treatment; format: functional
# [14] = Oral bioavailability in mouse at 25 mg/kg, po measured after 30 mins; format: ADME, organism-based; settings: in vivo, read-out: Drug uptake
# [15] = system: Mycobacterium tuberculosis; assay: Antimicrobial activity against Mycobacterium tuberculosis Erdman injected into gamma interferon gene knockout C57BL/6 mouse assessed as bacterial load in lung of mouse at 25 mg/kg measured 9 days post drug treatment; format: functional
# [16] = Oral bioavailability in mouse at 25 mg/kg, po measured after 2 hrs; format: ADME, organism-based; settings: in vivo, read-out: Drug uptake
# [17] = Mycobacterium tuberculosis, H37Rv, read-out: MIC
compound,measurement,setting,value
Cc1c(N2CC3=CCCN[C@H]3C2)c(F)cn2c(=O)c(C(=O)O)cc(C3CC3)c12,log10cfu,[1],5.92
same,log10cfu,[2],4.91
same,concentration at 0.5 h,[3],> 13100 ng/mL
same,concentration at 2 h,[4],1640 ng/mL
same,MIC,[5],< 0.015 µg/mL
same,MIC,[6],< 0.015 µg/mL
same,MIC,[7],< 0.015 µg/mL
same,log10cfu,[8],6.13
same,log10cfu,[9],7.25
same,MIC,[10],0.041 µg/mL
same,Activity,[11],1.7%
same,MIC,[12]; [17],< 0.025 µg/mL
O=C(O)c1cn(C2CC2)c2cc(N3CCNCC3)c(F)cc2c1=O [CIPROFLOXACIN],Activity,[11],83%
COc1c(N2CCNC(C)C2)c(F)cc2c(=O)c(C(=O)O)cn(C3CC3)c12 (configuration not stated) [GATIFLOXACIN],Activity,[11],41%
NNC(=O)c1ccncc1 [ISONIAZID],log10cfu,[13],3.14
same,concentration at 0.5 h,[14],> 13100 ng/mL
same,log10cfu,[15],5.8
same,Activity,[11],70%
same,MIC,[12],0.041 µg/mL
same,MIC,[12]; [17],0.048 µg/mL
same,concentration at 2 h,[16],1640 ng/mL
Cc1ncc([N+](=O)[O-])n1CCO [METRONIDAZOLE],Activity,[11],36%
COc1c(N2C[C@@H]3CCCN[C@@H]3C2)c(F)cc2c(=O)c(C(=O)O)cn(C3CC3)c12 [MOXIFLOXACIN],log10cfu,[2],2.43
same,concentration at 0.5 h,[3],19600 ng/mL
same,concentration at 2 h,[4],9600 ng/mL
same,log10cfu,[8],2.37
same,Activity,[11],2.5%
same,MIC,[12],0.1 µg/mL
same,MIC,[12]; [17],0.12 µg/mL
CO[C@H]1/C=C/O[C@@]2(C)Oc3c(C)c(O)c4c(O)c(c(/C=N/N5CCN(C)CC5)c(O)c4c3C2=O)NC(=O)/C(C)=C\C=C\[C@H](C)[C@H](O)[C@@H](C)[C@@H](O)[C@@H](C)[C@H](OC(C)=O)[C@@H]1C [RIFAMPIN],Activity,[11],5.6%
CO[C@H]1/C=C/O[C@@]2(C)Oc3c(C)c(O)c4c(O)c(c(/C=N/N5CCN(C6CCCC6)CC5)c(O)c4c3C2=O)NC(=O)/C(C)=C\C=C\[C@H](C)[C@H](O)[C@@H](C)[C@@H](O)[C@@H](C)[C@H](OC(C)=O)[C@@H]1C [RIFAPENTINE],Activity,[11],2.5%
CN[C@@H]1[C@H](O[C@H]2[C@H](O[C@H]3[C@H](O)[C@@H](O)[C@H](N=C(N)N)[C@@H](O)[C@@H]3N=C(N)N)O[C@@H](C)[C@]2(O)C=O)O[C@@H](CO)[C@H](O)[C@H]1O [STREPTOMYCIN],Activity,[11],4.2%
